Test results reported in patent US20230399374A1, “Compounds, Compositions and Methods of Use to Treat Bone Fractures” (PURDUE RESEARCH FOUNDATION, priority 2020, published 2023).
Non-standard residues stand in square brackets, D forms with d. No end group written: not given here. Aib = CC(C)(N)C(=O)O

Key:
midshaft femur fracture = assay: Pain/function outcomes, locomotor open-field testing after midshaft femur fracture; assay type: in vivo, mice; conditions: for pain/function outcomes, well-being in the open field: 5 weeks post-fracture, measured once a week
Procedure: Pain/function outcomes in mice were accessed by turning to behavioral testing. Allodynia was evaluated using Von Frey probes, whereas gain was evaluated using DigiGait, functionality was evaluated using running wheels, and anxiety coupled with functionality was evaluated using locomotor open-field testing. Open-field locomotor testing afforded the most consistent measurements.
Mice were habituated to the behavior room for 30-60 minutes before testing locomotor activity. Animals were habituated once for 10 minutes to the locomotor boxes prior to the start of the experiment. They were then placed individually in a locomotor box with infrared light tracking beams for 10 minutes before being removed and placed back in their home cage. The mice were tracked via EthoVision using 3-point directionality testing. Mice were measured for two weeks prior to the experiment. They then underwent the midshaft femur fracture model and were assigned to one of three treatment groups: 1) abaloparatide DE20 twice a week; 2) phosphate buffered saline twice a week; or 3) ibuprofen (0.6 g/L) in their water. The mice were treated for 5 weeks post-fracture and measured once a week.
For FIGS. 26-28, day 0 represents the baseline data pre-fracture. Saline and SEQ ID NO: 4 (1 nmol) were injected twice/week. Ibuprofen was administered constantly in the mice's water at a concentration of 0.6 g/L.

[1] = design: species or system mice; conditions: mouse, in vivo, sc
Description: (§1) SEQ ID NO: 4 was subcutaneously injected into fracture-bearing mice. […] The results are shown in FIG. 30, which is a graph of hours vs. percent injected dose in blood (cpm/g) of mice with midshaft femoral factures. […] The results are shown in FIG. 31, which is a graph of hours vs. percent injected dose in bone (cpm/g) of mice with midshaft femoral factures.

[2] = tested on: fracture site (fractured femur); design: species or system mice; conditions: mouse, in vivo; for cumulative residence time (AUC) at the fracture site / half-life at the fracture site: sc
Description: as §1

[3] = tested on: midshaft femoral fractures; assay: Midshaft femur fracture healing in otherwise healthy mice (micro-CT, bend to failure); assay type: in vivo; conditions: for bone deposition in CT images: three weeks after initiation of treatment, FIG. 35
Description: In some instances, elevated accumulation of SEQ ID NO: 4 at the fracture site improves fracture healing (e.g., FIGS. 26-30). In some instances, femur fracture healing times following administration of a starting dose calculated by allometric scaling of the human dose prescribed for abaloparatide (SEQ ID NO: 2) treatment of osteoporosis are compared.
Bone morphometric analyses confirmed a 1.5-fold increase in the ratio of mineralized volume (bone volume; BV) to total bone volume (total volume; TV) in the SEQ ID NO: 4-treated mice.
In some instances, such as, to establish whether the observed increase in bone deposition translates into an improvement in mechanical properties, the force required to bend the healed femurs until they fractured again was measured.
In some instances, the force to fracture in the SEQ ID NO: 4-treated mice exceeded that required to fracture the contralateral healthy femurs in the same mice or similar, unmodified femurs in saline-treated mice.
The length of the targeting oligopeptide was increased to determine if it increased the drug's affinity for broken bone sufficiently that retention of the anabolic payload at the fracture site would be prolonged and less frequent dosing may be required. Mice were doses once every three days, rather than daily. […] The results are shown in FIG. 34, which is a graph of treatment (saline, SEQ ID NO: 3 (0.1 nmol/mg (0.1×), 1 nmol/mg (1×), and 10 nmol/mg (10×), and SEQ ID NO: 4 (0.1 nmol/mg (0.1×), 1 nmol/mg (1×), and 10 nmol/mg (10×)) vs. max load (N) of mice with midshaft femoral factures.

[4] = tested on: type I diabetic femur fracture; assay type: in vivo; conditions: for callus mineralization (BV) and bone density (BV/TV): four weeks of treatment, micro-CT, FIG. 13 and 14; for strength of the fractures (max load, work to fracture): four weeks, 4-point bend, FIG. 15 and 16
Procedure: (§2) Targeted conjugates of SEQ ID NO: 5, abaloparatide (SEQ ID NO: 2), SEQ ID NO: 6, and SEQ ID NO: 9 (a conjugate with 10 aspartic acid residues) were synthesized using Fmoc solid-phase peptide synthesis. From SEQ ID NO: 5, amino acids 1-34 were used, and abaloparatide (SEQ ID NO: 2) is a stabilized version of amino acids 1-36 of SEQ ID NO: 1. Diabetes was induced in 40 8-week-old male CD-1 mice via seven subcutaneous injections of streptozotocin (STZ) until blood sugar readings were above 250 mg/dL. The mice were left in this confirmed diabetic state for 2 months to allow the diabetes to take effect on the bones. Then, aseptic surgical techniques were used to place a 23-gauge needle as an intramedullary nail in the femur of the anesthetized mice for internal fixation before fracture was induced with a drop-weight fracture device from RISystem and confirmed by x-ray. The mice received buprenorphine for three days post-fracture. They were dosed subcutaneously with a positive control of insulin, a negative control of vehicle, SEQ ID NO: 5, or abaloparatide (SEQ ID NO: 2) each day for 4 weeks. Fracture healing was assessed qualitatively using micro-CT (Scanco Medical Ag). Fractured femurs were tested for strength in a 4-point-bend-to-failure using an ElectroForce TestBench (TA Instruments, New Castle, DE). Maximum load, stiffness, displacement post-yield, and work-to-fracture data were generated. Statistical analysis was performed using a one-way analysis of variance (ANOVA) with significance reported with p values less than 0.05 (*) and 0.01 (**).
Four compounds were tested. […] Abaloparatide (SEQ ID NO: 2) is a stabilized version of parathyroid-related protein hormone. Dasatinib is an […] with off-target effects on both osteoblasts and osteoclasts that improve overall bone density. Dasatinib has also proven to be a senolytic. ITGA is a fibronectin mimetic that promotes intramembranous bone fracture healing. […] Therefore, it was hypothesized that the glucose regulating properties of full-length SEQ ID NO: 5 may be beneficial in healing type I diabetic fractures as a dual-action compound that may improve healing via two mechanisms. The compounds were compared against insulin as a positive control and saline as a negative control.
BV represents the bone volume of the 100 thickest micro-CT slices of the fracture callus and is a measure of how much bone has mineralized at the site of fracture repair. BV/TV represents the BV divided by TV of the 100 thickest micro-CT slides of the fracture callus and is a measure of how dense the bone is at the site of fracture repair. Insulin was dosed as 2 IU/day. Doses of 0.1×, 50×, and 10×, are […], and 10 nmol, respectively, of the conjugate delivered daily by subcutaneous injection. SEQ ID NO: 6 was dosed at 10 μmol/kg every other day.
Insulin was dosed at 2 IU/day. Doses of 0.1×, 50×, and 10×, are 0.1 nmol, 50 nmol, and […], of the conjugate delivered daily by subcutaneous injection. SEQ ID NO: 6 was dosed at 10 μmol/kg every other day.

[5] = tested on: type I diabetic femur fracture; assay: Fracture repair model, type I diabetes, compounds dosed in conjunction with insulin; assay type: in vivo, mice; conditions: with insulin 2 IU/day; for strength (maximum force, work to fracture, modulus): significance relative to insulin-treated group, FIG. 22A-C
Procedure: as §2
However, since […] patients will not stop taking their insulin to take a compound provided herein, the experiment was repeated with compounds dosed in conjunction with insulin (FIGS. 20-22). […]
For FIGS. 22A-22C, insulin was dosed at 2 IU/day in all groups, except for saline. […] All significance levels were calculated relative to the insulin-treated group, not the saline control group. […]

[6] = dosed once every three days, FIG. 34

CC(C)Cc1ccc(C(C)C(=O)O)cc1 (stereo not drawn) [ibuprofen, reference compound]
pain/function outcomes, well-being in the open field (midshaft femur fracture): did not improve their pain/function outcomes

AVSEHQLLHDKGKSIQDLRRRELLEKLLxKLHTAEIRATSEVSPNSeeeeeeeeeeeeeeeeeeee [SEQ ID NO: 4]
circulation half-life [1]: 3.7 h
cumulative systemic exposure (AUC) [1]: 20 h
cumulative residence time (AUC) at the fracture site relative to abaloparatide [2]: 11 fold
residence time in the contralateral femur, fold lower than in the fractured femur [2]: 8 fold
cumulative residence time (AUC) at the fracture site [2]: 96 h
half-life at the fracture site [2]: 67 h
maximum load relative to free abaloparatide-treated femurs ([3]; FIG. 32): 2.5 fold
work to fracture relative to abaloparatide-treated femurs ([3]; FIG. 33): 3.5 fold
max load compared to saline (significance) [3, 6]: significantly higher
maximum load before breakage, abalode 20 versus abalode 10, greater strength ([3]; dosed once every three days, trend, FIG. 34): 20-30%
relative effectiveness at improving bone healing ([3]; mouse, in vivo): more effective (e.g., at improving bone healing) than SEQ ID NO: 3
time at which bones return to their previous unbroken strength ([3]; mouse, in vivo): between two and three weeks post-fracture
bone deposition in CT images [3]: distributed (e.g., more) evenly across the fractured area
morphometric basis of the increase in bone density ([3]; three weeks of therapy): primarily due to a reduction in trabecular spacing, rather than an increase in trabecular thickness
increase in the ratio of bone volume to total volume (BV/TV) ([3]; three weeks of therapy, compared with abaloparatide-treated mice): 1.5 fold
strength of repaired femurs above original unbroken femurs ([3]; versus contralateral healthy femurs): 30%
distance traveled in 10 minutes (midshaft femur fracture; 1 nmol twice/week, FIG. 26): began to run farther
time spent moving in 10 minutes (midshaft femur fracture; 1 nmol twice/week, FIG. 27): began to run for longer periods of time
mean velocity in 10 minutes (midshaft femur fracture; 1 nmol twice/week, FIG. 28): began to run faster
pain/function outcomes, well-being in the open field (midshaft femur fracture): more functionality and better well-being

SEQ ID NO: 3: SEQ ID NO: 15 (AVSEHQLLHDKGKSIQDLRRRELLEKLLxKLHTAEIRATSEVSPNS) followed by eeeeeeeeee, e = D-glutamic acid (AVSEHQLLHDKGKSIQDLRRRELLEKLL[Aib]KLHTAEIRATSEVSPNS[dE][dE][dE][dE][dE][dE][dE][dE][dE][dE])
max load compared to saline (significance) [3, 6]: lacked significance when dosed every three days
healing in healthy femur fractures ([3]; mouse, in vivo): repeatedly accelerated healing in healthy femur fractures
relative effectiveness at improving bone healing ([3]; mouse, in vivo): better than abaloparatide

SEQ ID NO: 6: a targeted conjugate of dasatinib (e.g., D10-ester-dasatinib) ({ester‑dasatinib}-DDDDDDDDDD)
healing in healthy femur fractures ([3]; mouse, in vivo): repeatedly accelerated healing in healthy femur fractures
callus mineralization (BV) and bone density (BV/TV) [4]: without improving the callus mineralization
strength of the fractures (max load, work to fracture) [4]: improved strength
change in body mass ([4]; mouse, in vivo): lost weight
toxicity (in words) ([4]; mouse, in vivo): exhibited some toxicity at higher doses

SEQ ID NO: 7: ITGA (fibronectin mimetic cyclic peptide 101) conjugated with 10 glutamic acid residues (HEEEEEEEEEERRETAWA; also: cyclic, ring not given here)
healing in healthy femur fractures ([3]; mouse, in vivo): repeatedly accelerated healing in healthy femur fractures

SEQ ID NO: 8: cyclic peptide 102, a conjugate with 10 glutamic acid residues (HEEEEEEEEEERRETAWA; also: cyclic, ring not given here)
mineralization of the callus (bone volume) ([5]; four weeks, FIG. 20A): improved the mineralization of the callus better than insulin
strength (maximum force, work to fracture, modulus) [5]: significantly improved the strength compared to the insulin control

abaloparatide [SEQ ID NO: 2, reference compound]
strength (maximum force, work to fracture, modulus) [5]: significantly improved the strength compared to the insulin control
circulation half-life [1]: 4.2 h
cumulative systemic exposure (AUC) [1]: 24.4 h
cumulative residence time (AUC) at the fracture site [2]: 8 h
half-life at the fracture site [2]: 8.8 h
bone deposition in CT images [3]: concentrated on the periphery of the fracture, with minimal density bridging the opposing calluses
callus mineralization (BV) and bone density (BV/TV) [4]: impacting density the most

insulin [reference compound]
callus mineralization (BV) and bone density (BV/TV) [4]: improvement in mineralization
strength of the fractures (max load, work to fracture) [4]: not able to restore the quality of the bone
blood sugar levels ([4]; four-week treatment period, FIG. 18): the only compound to improve blood sugar levels
